Measurements: paper PMC6804295, “Design, Synthesis, and Biological Evaluation of Novel Thienopyrimidine Derivatives as PI3Kα Inhibitors” (Molecules, 2019)

Tests used:
[1] = test system: HepG2 (human hepatoma); assay: MTT cytotoxicity assay, HepG2 cells; format: cell-based; conditions: >50 = no inhibitory effect at 50 μM
Experimental: (§1) The cancer cell lines were cultured in minimum essential medium (MEM) supplement with 10% fetal bovine serum (FBS). Approximately, 4 × 10 ^3 cells, suspended in MEM medium, were plated onto each well of a 96-well plate and incubated in 5% CO2 at 37 °C for 24 h. The test compounds at the indicated final concentrations were added to the culture medium, and cell cultures continued for 72 h. Fresh MTT was added to each well at a terminal concentration of 5 µg/mL and incubated with cells at 37 °C for 4 h. The formazan crystals were dissolved in 100 µL of DMSO in each well, and the absorbency at 492 nm (for absorbance of MTT formazan) and 630 nm (for the reference wavelength) was measured with an enzyme linked immunosorbent assay (ELISA) reader (MR-96A Mindray Elisa Microplate Reader, Guangzhou, China). All compounds were tested three times in each of the cell lines. The results expressed as inhibition rates or IC50 was the averages of […] and calculated using the Bacus Laboratories Inc. Slide Scanner (Bliss) software (the Bacus Laboratories Inc. Slide Scanner (BLISS) system, Lombard, IL, USA).

[2] = test system: MCF-7 (human breast cancer); assay: MTT cytotoxicity assay, MCF-7 cells; format: cell-based; conditions: >50 = no inhibitory effect at 50 μM
Experimental: as §1

[3] = test system: PC-3 (human prostate cancer); assay: MTT cytotoxicity assay, PC-3 cells; format: cell-based; conditions: >50 = no inhibitory effect at 50 μM
Experimental: as §1

[4] = test system: A549 (human lung cancer); assay: MTT cytotoxicity assay, A549 cells; format: cell-based; conditions: 72 h, >50 = no inhibitory effect at 50 μM
Experimental: as §1

[5] = molecular target: PI3Kα (Homo sapiens, UniProt P42336); assay: PI3Kα Kinase-Glo Luminescent Kinase Assay; format: biochemical; conditions: 1 µM ATP, 60 min
Chain of PI3Kα (P42336 whole entry): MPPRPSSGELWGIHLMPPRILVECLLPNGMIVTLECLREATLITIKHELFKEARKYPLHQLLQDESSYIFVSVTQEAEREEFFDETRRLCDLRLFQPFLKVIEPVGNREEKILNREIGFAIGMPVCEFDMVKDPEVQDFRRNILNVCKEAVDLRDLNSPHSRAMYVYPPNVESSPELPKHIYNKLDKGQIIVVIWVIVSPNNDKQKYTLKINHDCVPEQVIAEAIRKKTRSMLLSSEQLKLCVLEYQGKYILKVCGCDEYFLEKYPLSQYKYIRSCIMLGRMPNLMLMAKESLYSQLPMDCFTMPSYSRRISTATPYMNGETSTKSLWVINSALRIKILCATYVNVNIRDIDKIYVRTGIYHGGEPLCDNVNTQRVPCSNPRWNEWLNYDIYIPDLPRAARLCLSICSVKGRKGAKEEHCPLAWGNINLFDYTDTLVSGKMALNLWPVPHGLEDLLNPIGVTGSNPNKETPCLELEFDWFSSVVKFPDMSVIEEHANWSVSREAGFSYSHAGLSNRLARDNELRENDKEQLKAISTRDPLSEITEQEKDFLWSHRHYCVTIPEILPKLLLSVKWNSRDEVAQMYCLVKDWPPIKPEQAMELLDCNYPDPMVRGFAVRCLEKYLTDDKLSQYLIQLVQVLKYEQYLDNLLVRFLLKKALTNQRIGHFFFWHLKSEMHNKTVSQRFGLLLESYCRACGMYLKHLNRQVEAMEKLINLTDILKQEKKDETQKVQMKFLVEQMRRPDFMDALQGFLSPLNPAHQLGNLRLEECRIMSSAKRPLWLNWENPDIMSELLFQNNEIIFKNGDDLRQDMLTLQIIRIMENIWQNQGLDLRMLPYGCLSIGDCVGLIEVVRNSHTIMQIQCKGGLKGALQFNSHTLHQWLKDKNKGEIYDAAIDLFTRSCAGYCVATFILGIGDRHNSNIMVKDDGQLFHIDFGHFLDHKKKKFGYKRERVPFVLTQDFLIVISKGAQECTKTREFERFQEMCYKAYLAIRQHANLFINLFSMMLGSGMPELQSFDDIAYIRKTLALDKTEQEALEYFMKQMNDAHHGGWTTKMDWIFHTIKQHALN
Chain of PI3Kα (P27986 whole entry partner): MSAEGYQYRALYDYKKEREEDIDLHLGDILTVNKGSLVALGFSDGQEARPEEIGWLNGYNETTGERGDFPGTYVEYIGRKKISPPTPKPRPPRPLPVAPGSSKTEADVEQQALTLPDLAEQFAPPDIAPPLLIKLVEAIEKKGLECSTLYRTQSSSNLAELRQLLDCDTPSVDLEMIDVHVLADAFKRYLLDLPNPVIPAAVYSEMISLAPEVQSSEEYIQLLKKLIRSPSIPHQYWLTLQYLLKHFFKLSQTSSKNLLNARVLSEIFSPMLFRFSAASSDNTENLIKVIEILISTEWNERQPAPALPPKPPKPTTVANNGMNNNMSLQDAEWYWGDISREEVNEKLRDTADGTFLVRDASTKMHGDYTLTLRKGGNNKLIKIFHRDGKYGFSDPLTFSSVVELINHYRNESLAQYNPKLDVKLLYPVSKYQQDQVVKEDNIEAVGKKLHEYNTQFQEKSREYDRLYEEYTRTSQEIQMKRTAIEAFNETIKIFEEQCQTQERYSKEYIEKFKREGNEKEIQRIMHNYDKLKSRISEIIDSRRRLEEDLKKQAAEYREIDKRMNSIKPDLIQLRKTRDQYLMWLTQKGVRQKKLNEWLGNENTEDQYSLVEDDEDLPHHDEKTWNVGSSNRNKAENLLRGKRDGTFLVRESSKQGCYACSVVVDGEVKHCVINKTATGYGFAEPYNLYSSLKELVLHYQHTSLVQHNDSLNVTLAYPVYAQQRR

[6] = molecular target: mTOR (Homo sapiens, UniProt P42345); assay: mTOR Kinase-Glo Luminescent Kinase Assay; format: biochemical; conditions: 10 µM ATP, 60 min

Row | melting point | IC50 [5] | IC50 [6] | Compound | IC50 ([1]; Homo sapiens, HepG2, 72 h) | IC50 ([2]; Homo sapiens, MCF7, 72 h) | IC50 ([3]; Homo sapiens, PC-3, 72 h) | IC50 [4] | IC50 ([1]; 72 h) | IC50 ([2]; 72 h) | IC50 ([3]; 72 h)
1 | 212 to 213 °C |  |  | c1ccc(C2=NN(c3nc(N4CCOCC4)c4c5c(sc4n3)CCCC5)C(c3ccccc3)C2)cc1 (stereo not shown) [Compound 21c, 4-(2-(3,5-diphenyl-4,5-dihydro-1H-pyrazol-1-yl)-5,6,7,8-tetrahydrobenzo[4,5]thiophene[2,3-d]pyramidin-4-yl)morpholine] | > 50 µM | > 50 µM | > 50 µM | 42 ± 1.49 µM |  |  | 
2 | 252 to 253 °C |  |  | COc1ccc(C2CC(c3ccc(Cl)c(Cl)c3)=NN2c2nc(N3CCOCC3)c3c4c(sc3n2)CCCC4)cc1 (stereo not shown) [Compound 21a, 4-(2-(3-(3,4-dichlorophenyl)-5-(4-methoxyphenyl)-4,5-dihydro-1H-pyrazol-1-yl)-5,6,7,8-tetrahydrobenzo[4,5]thieno[2,3-d]pyrimidin-4-yl)morpholine] | 32.4 ± 1.84 µM |  | 31.8 ± 0.95 µM | 27.68 ± 0.1 µM |  |  | 
3 | 243 to 244 °C |  |  | Cc1ccc(C2CC(c3ccc(Br)cc3)=NN2c2nc(N3CCOCC3)c3c4c(sc3n2)CCCC4)cc1 (stereo not shown) [Compound 21b, 4-(2-(3-(4-bromophenyl)-5-(p-tolyl)-4,5-dihydro-1H-pyrazol-1-yl)-5,6,7,8-tetrahdrobenzo[4,5]thieno[2,3-d]pyrimidin-4-yl)morpholine] | 12.4 ± 0.96 µM | 15.3 ± 0.83 µM | 20.6 ± 0.63 µM | 11.59 ± 0.11 µM |  |  | 
4 | 257 to 259 °C |  |  | Brc1ccc(C2=NN(c3nc(N4CCOCC4)c4c5c(sc4n3)CCCC5)C(c3ccccc3)C2)cc1 (stereo not shown) [Compound 21f, 4-(2-(3-(4-bromophenyl)-5-phenyl-4,5-dihydro-1H-pyrazol-1-yl)-5,6,7,8-tetrahydrobenzo[4,5]thieno[2,3-d]pyrimidin-4-yl)morpholine] | > 50 µM | > 50 µM | > 50 µM | > 50 µM |  |  | 
5 | 293 to 294 °C |  |  | Clc1ccc(C2=NN(c3nc(N4CCOCC4)c4c5c(sc4n3)CCCC5)C(c3ccccc3)C2)cc1Cl (stereo not shown) [Compound 21h, 4-(2-(3-(3,4-dichlorophenyl)-5-phenyl-4,5-dihydro-1H-pyrazol-1-yl)-5,6,7,8-tetrahydrobenzo[4,5]thieno[2,3-d]pyrimidin-4-yl)morpholine] | > 50 µM | > 50 µM | > 50 µM | 23.5 ± 0.82 µM |  |  | 
6 | 254.7 to 255.4 °C |  |  | Fc1ccc(C2=NN(c3nc(N4CCOCC4)c4sccc4n3)C(c3ccc(F)cc3)C2)cc1 (stereo not shown) [Compound 15c, 4-(2-(3,5-bis(4-fluorophenyl)-4,5-dihydro-1H-pyrazol-1-yl)thieno[3,2-d]pyrimidin-4-yl)Morpholine] | 18.9 ± 1.86 µM | 37.1 ± 2.99 µM | 25.3 ± 2.39 µM | 39 ± 3.32 µM |  |  | 
7 | 202 to 205 °C | 9.47 ± 0.63 µM | 39.9 ± 7.6 µM | c1ccc(C2=NN(c3nc(N4CCOCC4)c4ccsc4n3)[C@@H](c3ccccc3)C2)cc1 (stereo in doubt) [Compound 9a] | 12.3 ± 0.96 µM | 9.8 ± 0.93 µM | 14.7 ± 1.32 µM | 11.3 ± 1.19 µM | 9.8 ± 0.93 µM | 14.7 ± 1.32 µM | 12.3 ± 0.96 µM
8 | 272 to 273 °C |  |  | Fc1ccc(C2CC(c3ccc(Br)cc3)=NN2c2nc(N3CCOCC3)c3c4c(sc3n2)CCCC4)cc1 (stereo not shown) [Compound 21e, 4-(2-(3-(4-bromophenyl)-5-(4-fluorophenyl)-4,5-dihydro-1H-pyrazol-1-yl)-5,6,7,8-tetrahydrobenzo[4,5]thieno[2,3-d]pyrimidin-4-yl)morpholine] | 38.7 ± 1.72 µM | > 50 µM | > 50 µM | > 50 µM |  |  | 
9 |  |  |  | CS(=O)(=O)N1CCN(Cc2cc3nc(-c4cccc5[nH]ncc45)nc(N4CCOCC4)c3s2)CC1 [GDC-0941, reference compound] | 0.07 ± 0.03 µM | 0.2 ± 0.08 µM | 4.35 ± 0.33 µM | 6.99 ± 0.21 µM |  |  | 
10 | 131.2 to 132.5 °C | 25.7 ± 2.33 µM | > 50 µM | c1ccc(C2=NN(c3nc(N4CCOCC4)c4sccc4n3)[C@@H](c3ccccc3)C2)cc1 (stereo in doubt) [Compound 15a] | 13.1 ± 1.48 µM | 17 ± 1.68 µM | 15.5 ± 1.21 µM | 16.9 ± 1.61 µM |  |  | 
11 | 225 to 227 °C |  |  | Fc1ccc(C2=NN(c3nc(N4CCOCC4)c4ccsc4n3)C(c3ccc(F)cc3)C2)cc1 (stereo not shown) [Compound 9c, 4-(2-(3,5-bis(4-fluorophenyl)-4,5-dihydro-1H-pyrazol-1-yl)thieno[2,3-d]pyrimidin-4-yl)Morpholine] | 17.4 ± 0.98 µM | 22.37 ± 0.17 µM | 18.2 ± 1.55 µM | 24.23 ± 0.15 µM |  |  | 
12 | 189 to 193 °C |  |  | COc1ccc(C2CC(c3ccc(F)cc3)=NN2c2nc(N3CCOCC3)c3c4c(sc3n2)CCCC4)cc1 (stereo not shown) [Compound 21d, 4-(2-(3-(4-fluorophenyl)-5-(4-methoxyphenyl)-4,5-dihydro-1H-pyrazol-1-yl)-5,6,7,8-tetrahydrobenzo[4,5]thieno[2,3-d]pyrimidin-4-yl)morpholine] | 23.7 ± 0.11 µM | 29.5 ± 1.87 µM | 25.3 ± 0.75 µM | 17.8 ± 1.1 µM |  |  | 
13 | 231 to 234 °C |  |  | Clc1ccc(C2=NN(c3nc(N4CCOCC4)c4c5c(sc4n3)CCCC5)C(c3ccc(Br)cc3)C2)cc1Cl (stereo not shown) [Compound 21g, 4-(2-(5-(4-bromophenyl)-3-(3,4-dichlorophenyl)-4,5-dihydro-1H-pyrazol-1-yl)-5,6,7,8-tetrahydrobenzo[4,5]thieno[2,3-d]pyrimidin-4-yl)morpholine] | > 50 µM | > 50 µM | > 50 µM | > 50 µM |  |  | 
